Usually IC50 stands for the concentration at which inhibition is half-maximal.

One assay has as its target T1, GCN2 kinase (Homo sapiens, UniProt Q9P2K8).
T1 construct: G556E with a; purchased Carna Biosciences
As to the kind of experiment: Biochemical assay for GCN2 (TR-FRET kinase activity assay). Particulars: 2 nM GCN2, 1 mM ATP, 3-hour incubation. The procedure: Biochemical assay for GCN2
Activity of GCN2 kinase was determined using a TR-FRET kinase activity assay (e.g., Analytical Biochemistry, 2006, 356, 108-116). Assays were conducted in 384-well plates (13 μL assay volume) using 2 nM GCN2 (Carna Biosciences), 130 nM GFP-EIf2α (Invitrogen), 0.2 mg/mL E. coli tRNA (sigma) and 1 mM ATP in kinase buffer (Invitrogen). Inhibition of GCN2 was measured by adding serial diluted test compound (final assay concentration of 0.5% DMSO) followed by a 3-hour incubation. Tb-peIF2α (pSer52) antibody (Invitrogen) (2 nM final assay concentration) in kinase buffer containing EDTA (final assay concentration of 20 mM) was added. After a 60 min incubation at room temperature, TR-FRET was monitored using an excitation wavelength of 340 nm and emission wavelengths of 490 nm and 520 nm. The emission ratio (520/490) at each compound concentration of was converted to percent inhibition using controls (i.e., reaction with no test compound and reaction with a known inhibitor) and IC50 values were calculated by fitting a four-parameter sigmoidal curve to the data using Prism (GraphPad software).

A further assay deals with T2, PERK kinase (Homo sapiens, UniProt Q9NZJ5, A704S).
T2 construct: GST (with thrombin site LVPRGS); purchased Beryllium
As to the kind of experiment: Biochemical assay for PERK (coupled pyruvate kinase/lactate dehydrogenase assay). Particulars: 10 nM PERK, 1 mM ATP, reaction rate 2-3 h time frame, 30° C. How it is done: Biochemical Assay for PERK
Activity of PERK kinase was determined spectroscopically using a coupled pyruvate kinase/lactate dehydrogenase assay that continuously monitors the ATP hydrolysis-dependent oxidation of NADH (Science, 2000, 289, 1938-1942). Assays were conducted in 384-well plates (100 μL final volume) using 10 nM PERK (from Beryllium), 0.25 mg/mL Myelin Basic Protein substrate, 1.5 units pyruvate kinase, 2.1 units lactate dehydrogenase, 1 mM phosphoenol pyruvate, 0.28 mM NADH and 1 mM ATP in assay buffer (100 mM Tris, pH 7.5, 15 mM MgCl2, 0.5 mM DTT, 0.004% (w/v) BSA, and 0.004% Triton X-100). Inhibition of PERK was measured by adding serial diluted test compound (final assay concentration of 1% DMSO). A decrease in absorption at 340 nm was monitored continuously for 6 hours at 30° C. on a multi-mode microplate reader (BioTek). The reaction rate was calculated using the 2-3 h time frame. The reaction rate at each concentration of compound was converted to percent inhibition using controls (i.e., reaction with no test compound and reaction with a known inhibitor) and IC50 values were calculated using software routines in Prism (GraphPad software).

Assay [1] concerns ASNase treated CCRF-CEM cells. Kind of assay: CCRF-CEM ASNase cell proliferation assay, phenotypic assay for cellular inhibition of GCN2. The format is cell-based. Particulars: Homo sapiens, 1 mU/mL ASNase, 72 h, resazurin. How it is done: CCRF-CEM ASNase Cell Proliferation Assay, a Phenotypic Assay for Cellular Inhibition of GCN2.
CCRF-CEM leukemia cells (catalog #CCL-116) were obtained from the American Type Culture Collect (ATTC, Manassas, VA). Cells were grown in RPMI-1640 medium supplemented with 10% heat-inactivated fetal bovine serum (Invitrogen, Carlsbad, CA) and 1% Penicillin/Streptomycin/L-Glutamine at 37° C., 5% CO2, and 95% humidity. Cells were expanded until reaching one million cells per mL at which time they are subcultured or harvested for assay use. Ten thousand cells per well in 200 μL RPMI-1640 supplemented with 10% heat-inactivated fetal bovine serum and 1% Penicillin/Streptomycin were dispensed into a 96-well black clear bottom plate. A serial dilution of test compound and 1 mU/mL ASNase was added in triplicate and plates were incubated for 72 h at 37° C., 5% CO2, and 95% humidity. At the end of the incubation, 40 μL of a […] solution of resazurin (Sigma, St. Louis, MO) in PBS was added to each well of the plate and plates were incubated for an additional 6 h at 37° C., 5% CO2, and 95% humidity. Plates were read on a Synergy2 or equivalent reader (Biotek, Winooski VT) using an excitation of 540 nm and an emission of 600 nm. Data was analyzed using GraphPad Prism software (GraphPad, San Diego, CA) to calculate IC50 values.
For orientation: Alamar Blue is a resazurin reagent that responds to reducing activity.

Assay [2] relates to ATF4 in Thapsigargin stimulated CCRF-CEM cells. Kind of assay: CCRF-CEM TG ATF4 ELISA, phenotypic assay for cellular inhibition of PERK preactivated by thapsigargin. The format is cell-based. Particulars: Homo sapiens, 3 h, compound three hours then 1 μM thapsigargin for an additional hour. How it is done: CCRF-CEM TG ATF4 ELISA, a Phenotypic Assay for Cellular Inhibition of PERK Preactivated by Thapsigargin (TG)
CCRF-CEM leukemia cells (catalog #CCL-116) were obtained from the American Type Culture Collection (ATTC, Manassas, VA). Briefly, cells were grown in RPMI-1640 medium supplemented with 10% heat-inactivated fetal bovine serum (Invitrogen, Carlsbad, CA) and 1% Penicillin/Streptomycin/L-Glutamine at 37° C., 5% CO2, and 95% humidity. Cells were expanded until reaching one million cells per mL at which time they were subcultured or harvested for assay use. One million five hundred thousand cells per well in 1 mL complete growth medium were dispensed into 12-well plates and incubated overnight. A serial dilution of test compound was added and cells were incubated at 37° C., 5% CO2, and 95% for three hours, then 1 μM thapsigargin was added and cells were incubated for an additional hour at 37° C., 5% CO2, and 95%. Cells were lysed then ATF4 levels were measured using an ELISA assay (Proteintech, Rosemont, IL). Absorbance was measured at 450 nm and 544 nM using a Synergy2 or equivalent reader (Biotek, Winooski VT). Data was analyzed using PRISM software (Graphpad, San Diego, CA) to calculate IC50 values.
(An ELISA detects its analyte on a solid surface through an enzyme-linked reagent.)

The test system of assay [3] is ATF4 in H929 Multiple Myeloma cells. As to the kind of experiment: H929 ATF4 ELISA assay. Particulars: four hours, fold stimulation of cellular ATF4 relative to vehicle treated control. The format is cell-based. How it is done: H929 multiple myeloma cells (catalog #CRL-9068) were obtained from the American Type Culture Collection (ATTC, Manassas, VA). Briefly, cells were grown in RPMI-1640 medium supplemented with 20% heat-inactivated fetal bovine serum (catalog #A3840002, ThermoFisher Scientific, Waltham, MA), 1% Penicillin/Streptomycin/L-Glutamine (catalog #10378016, ThermoFisher Scientific, Waltham, MA), and 0.05 mM 2-mercaptoethanol (catalog #21985-023, ThermoFisher Scientific, Waltham, MA) at 37° C., 5% CO2, and 95% humidity. Cells were expanded until reaching one million five hundred thousand cells per mL at which time they were sub-cultured or harvested for assay use. One million five hundred thousand cells per well in 1 mL complete growth medium were dispensed into 12-well plates and incubated overnight. A serial dilution of test compound was added, and cells were incubated at 37° C., 5% CO2, and 95% for four hours. Cells were lysed then ATF4 levels were measured using an ELISA assay (Proteintech, Rosemont, IL). Absorbance is measured at 450 nm and 544 nM using a Synergy2 or equivalent reader (Biotek, Winooski VT). Data were analyzed using PRISM software (Graphpad, San Diego, CA) to calculate fold stimulation of cellular ATF4 relative to vehicle treated control.

T2 sequence (Q9NZJ5 with tags, fused parts or gaps A704S): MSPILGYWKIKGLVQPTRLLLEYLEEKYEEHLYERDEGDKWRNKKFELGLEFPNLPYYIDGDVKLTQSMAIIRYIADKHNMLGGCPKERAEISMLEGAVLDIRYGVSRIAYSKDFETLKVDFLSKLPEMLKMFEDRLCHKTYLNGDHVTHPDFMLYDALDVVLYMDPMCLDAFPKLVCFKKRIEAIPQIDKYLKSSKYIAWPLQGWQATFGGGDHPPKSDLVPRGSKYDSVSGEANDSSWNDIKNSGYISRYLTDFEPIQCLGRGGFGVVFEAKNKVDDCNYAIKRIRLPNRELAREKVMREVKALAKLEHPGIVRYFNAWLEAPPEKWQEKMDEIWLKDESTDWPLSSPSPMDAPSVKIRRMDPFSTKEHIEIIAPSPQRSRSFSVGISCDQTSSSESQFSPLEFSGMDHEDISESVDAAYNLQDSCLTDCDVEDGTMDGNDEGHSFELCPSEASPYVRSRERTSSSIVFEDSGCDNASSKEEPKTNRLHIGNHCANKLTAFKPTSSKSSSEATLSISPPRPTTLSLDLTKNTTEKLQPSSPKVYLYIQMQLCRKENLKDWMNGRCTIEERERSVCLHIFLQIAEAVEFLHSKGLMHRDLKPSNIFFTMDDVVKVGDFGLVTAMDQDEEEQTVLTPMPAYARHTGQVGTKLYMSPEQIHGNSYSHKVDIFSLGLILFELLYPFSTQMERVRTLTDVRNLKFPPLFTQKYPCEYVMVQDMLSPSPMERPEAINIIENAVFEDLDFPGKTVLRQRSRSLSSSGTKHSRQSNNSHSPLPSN

In the case of `Nc1nccn2c(C3CCC3)nc(-c3cccc(NS(=O)(=O)c4cc(Cl)cc(CO)c4Cl)c3F)c12` [Example 17], the half-inhibitory concentration (IC50) at GCN2 kinase is at most 0.1 µM; against PERK kinase, at most 0.1 µM; in assay [1], 0.1 to 0.5 µM; in assay [2], 0.1 to 0.5 µM. Moreover, the “H929 NS ATF4 ELISA” value in assay [3] was “+++ (an ATF4 stim greater than 10-fold and less than or equal to 20-fold)”.

Regarding `NC(=O)c1cc(-c2cccc(NS(=O)(=O)c3cc(Cl)cc(CO)c3Cl)c2F)c2c(N)ncnn12` [Example 18], the IC50 on GCN2 kinase is at most 0.1 µM; on PERK kinase it was at most 0.1 µM; in assay [1] it was 0.1 to 0.5 µM; in assay [2] it was 0.5 to 1 µM. The “H929 NS ATF4 ELISA” value in assay [3] is “++ (an ATF4 stim greater than 5-fold and less than or equal to 10-fold)”.

Consider `Nc1nccn2c(-c3cn[nH]c3)nc(-c3cccc(NS(=O)(=O)c4cc(Cl)cc(CO)c4Cl)c3F)c12` [Example 19], for which the IC50 was at most 0.1 µM on GCN2 kinase, at most 0.1 µM on PERK kinase, 0.1 to 0.5 µM in assay [1] and 0.5 to 1 µM in assay [2]. Also, the “H929 NS ATF4 ELISA” value in assay [3] was “++ (an ATF4 stim greater than 5-fold and less than or equal to 10-fold)”.

Consider `Cn1cc(-c2nc(-c3cccc(NS(=O)(=O)c4cc(Cl)cc(CO)c4Cl)c3F)c3c(N)nccn23)cn1` [Example 20], for which the 50% inhibitory concentration (IC50) (on GCN2 kinase; against PERK kinase; in assay [1]; in assay [2]) was at most 0.1 µM throughout. Further, the “H929 NS ATF4 ELISA” value in assay [3] was “++ (an ATF4 stim greater than 5-fold and less than or equal to 10-fold)”.

On to `CSc1nc(-c2cccc(NS(=O)(=O)c3cc(Cl)cc(CO)c3Cl)c2F)c2c(N)nccn12` [Example 21], for which the IC50 was at most 0.1 µM against GCN2 kinase, at most 0.1 µM at PERK kinase, 0.1 to 0.5 µM in assay [1] and 0.1 to 0.5 µM in assay [2]. The “H929 NS ATF4 ELISA” value in assay [3] was “+++ (an ATF4 stim greater than 10-fold and less than or equal to 20-fold)”.

As to `CNC(=O)c1nc(-c2cccc(NS(=O)(=O)c3cc(Cl)cc(CO)c3Cl)c2F)c2c(N)nccn12` [Example 22], the 50% inhibitory concentration (IC50) at GCN2 kinase is at most 0.1 µM; at PERK kinase, at most 0.1 µM; in assay [1] it was 0.1 to 0.5 µM; in assay [2], 0.1 to 0.5 µM. For the same compound, the “H929 NS ATF4 ELISA” value in assay [3] was “++++ (an ATF4 stim greater than 20-fold)”.

Regarding `CNc1nc(-c2cccc(NS(=O)(=O)c3cc(Cl)cc(CO)c3Cl)c2F)c2c(N)nccn12` [Example 26], the IC50 on GCN2 kinase is at most 0.1 µM; against PERK kinase it was at most 0.1 µM; in assay [1], 0.1 to 0.5 µM; in assay [2], 0.1 to 0.5 µM. Further, in assay [3], the “H929 NS ATF4 ELISA” value is “++ (an ATF4 stim greater than 5-fold and less than or equal to 10-fold)”.

Consider `Cn1cc(-c2cccc(NS(=O)(=O)c3cc(F)c(Br)cc3F)c2F)c2c(N)ncnc21` [Example 38], for which the concentration for half-maximal inhibition (IC50) against GCN2 kinase was 1 to 10 µM; at PERK kinase it was at most 0.1 µM; in assay [1] it was 1 to 10 µM; in assay [2] it was 0.1 to 0.5 µM. Further, the “H929 NS ATF4 ELISA” value in assay [3] is “+ (an ATF4 stim less than or equal to 5-fold)”.

As for `COc1ncc(Cl)cc1S(=O)(=O)Nc1cc(F)c(F)c(-c2cn(C)c3ncnc(N)c23)c1` [Example 43], the IC50 on GCN2 kinase is 1 to 10 µM; against PERK kinase, at most 0.1 µM; in assay [1], 1 to 10 µM; in assay [2], 1 to 10 µM. Further, the “H929 NS ATF4 ELISA” value in assay [3] was “+ (an ATF4 stim less than or equal to 5-fold)”.

Take `Cn1cc(-c2cccc(NS(=O)(=O)c3cc(Cl)cc(/C=N\O)c3Cl)c2F)c2c(N)ncnc21` [Example 52, (Z)—N-(3-(4-amino-7-methyl-7H-pyrrolo[2,3-d]pyrimidin-5-yl)-2-fluorophenyl)-2,5-dichloro-3-((hydroxyimino)methyl)benzenesulfonamide]: the 50% inhibitory concentration (IC50) against GCN2 kinase was 0.5 to 1 µM; against PERK kinase, at most 0.1 µM; in assay [1] it was 1 to 10 µM; in assay [2], 0.1 to 0.5 µM. Moreover, in assay [3], the “H929 NS ATF4 ELISA” value was “++++ (an ATF4 stim greater than 20-fold)”.

Values taken from patent publication US20260226069A1, “GCN2 AND PERK KINASE MODULATORS AND METHODS OF USE THEREOF” (Deciphera Pharmaceuticals, LLC, priority 2023, published 2026).
